Experimental data from patent publication US10570155B2, “Imidazooxazole derivative having antitumor effect, and pharmaceutical composition including same” (KOREA INSTITUTE OF SCIENCE AND TECHNOLOGY, priority 2016, dated 2020).

Legend:
SK-MEL-2 = experiment: NCI cancer cell line panel screening (SRB), melanoma cell line SK-MEL-2; type: cell-based, human; conditions: Homo sapiens, read-out: IC50 against melanoma cell line in vitro
Protocol: (§1) According to the standard protocol (http://dtp.nci.nih.gov/dtpstandard/dwindex/index.isp) of the US National Cancer Institute (NCI) (www.dtp.nci.nih.gov), screening of a cancer cell line panel was performed. […] For a general screening experiment, cells were inoculated in 96-well microtiter plates in 100 μl at a plating density ranging from 5000 cells/well to 40,000 cells/well depending on the doubling time of individual cell lines. After cell inoculation, the microtiter plates were incubated at 37° C., 5% CO2, 95% air, and 100% relative humidity for 24 hours prior to addition of test compounds. 24 hours later, two plates of each cell line were fixed in situ with trichloroacetic acid (TCA) to measure the cell population for each cell line at the time of test compound addition (Tz). Test compounds were solubilized in dimethyl sulfoxide at 400-fold the intended final maximum test concentration, and stored frozen prior to use. At the time of compound addition, an aliquot of frozen concentrate was thawed and diluted to twice the intended final maximum test concentration with a complete medium containing 50 μg/ml of gentamicin. Additional four concentration of 10-fold or ½ log serial dilutions were made to provide a total of five compound concentrations plus control. Aliquots of 100 μl of these different compound dilutions were added to appropriate microtiter wells already containing 100 μl of medium, resulting in the required final compound concentrations.
(§2) Following compound addition, the plates were incubated for additional 48 hours at 37° C., 5% CO2, 95% air, and 100% relative humidity. For adherent cells, the assay was terminated by the addition of cold TCA. Cells were fixed in situ by the gentle addition of 50 μl of cold 50% (w/v) TCA (final concentration, 10% TAC) and incubated at 4° C. for 60 minutes. The supernatant was discarded, and the plates were washed five times with tap water and air-dried. A sulforhodamine B (SRB) solution (100 μl) at 0.4% (w/v) in 1% acetic acid was added to each well, and plates were incubated at room temperature for 10 minutes. After staining, unbound dye was removed by washing five times with 1% acetic acid and the plates were air-dried. […] For suspension cells, the methodology was the same except that the assay was terminated by fixing settled cells at the bottom of the wells by gently adding 50 μl of 80% TCA (final concentration, 16% TCA). Using the seven absorbance measurements [time zero (Tz), control growth (C), and test growth rate in the presence of compound at the five concentration levels (Ti)], the growth percentage was calculated at each of the compound concentration levels. Growth inhibition percentage was calculated as follows: [(Ti−Tz)/(C−Tz)]×100 for concentrations for which Ti>/=Tz [(Ti−Tz)/Tz]×100 for concentrations for which Ti<Tz.

LOX IMVI = experiment: NCI cancer cell line panel screening (SRB), melanoma cell line LOX IMVI; type: cell-based, human; conditions: Homo sapiens, read-out: IC50 against melanoma cell line in vitro
Protocol: as §1, §2

SK-MEL-5 = experiment: NCI cancer cell line panel screening (SRB), melanoma cell line SK-MEL-5; type: cell-based, human; conditions: Homo sapiens, read-out: IC50 against melanoma cell line in vitro
Protocol: as §1, §2

C-RAF = C-RAF (Homo sapiens (Human), UniProt P04049, Y340D/Y341D); experiment: Protein kinase enzymatic activity (Reaction Biology kinase hotspot, 33P-ATP); type: biochemical; conditions: read-out: Inhibitory effect against kinase activity, C-RAF (IC50)
Sequence of C-RAF (P04049 306-648 Y340D/Y341D limits assumed): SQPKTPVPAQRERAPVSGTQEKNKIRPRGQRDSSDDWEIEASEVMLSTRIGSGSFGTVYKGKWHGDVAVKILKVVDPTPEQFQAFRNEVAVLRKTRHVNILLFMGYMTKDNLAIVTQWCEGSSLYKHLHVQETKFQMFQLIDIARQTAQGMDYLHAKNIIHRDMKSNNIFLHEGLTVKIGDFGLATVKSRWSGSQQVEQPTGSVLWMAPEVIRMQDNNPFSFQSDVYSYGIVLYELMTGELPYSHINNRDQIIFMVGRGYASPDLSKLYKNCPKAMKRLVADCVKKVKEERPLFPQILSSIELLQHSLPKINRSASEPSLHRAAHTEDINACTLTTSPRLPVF
Protocol: (§3) Reaction biology kinase hotspot service (http://www.reactionbiology.com) was used to measure IC50. In a final reaction volume of 25 μL, kinase (5 mU to 10 mU) was incubated with 25 mM Tris (pH 7.5), 0.02 mM EGTA, 0.66 mg/ml of myelin basic protein, 10 mM magnesium acetate, and [^33P-ATP] (specific activity of about 500 CPM/pmol, concentration as required). The reaction was initiated by addition of Mg-ATP mix. After incubation for 40 min at room temperature, the reaction was stopped by addition of 5 μl of a 3% phosphoric acid solution. 10 μL of the reaction was then spotted onto a P30 filtermat and washed three times for 5 minutes in 75 mM phosphoric acid and once in methanol prior to drying and scintillation counting.

V600E-B-RAF = V600E-B-RAF (Homo sapiens (Human), UniProt P15056, V600E); experiment: as above; type: biochemical; conditions: read-out: Inhibitory effect against kinase activity, V600E-B-RAF (IC50)
Sequence of V600E-B-RAF (P15056 whole entry V600E): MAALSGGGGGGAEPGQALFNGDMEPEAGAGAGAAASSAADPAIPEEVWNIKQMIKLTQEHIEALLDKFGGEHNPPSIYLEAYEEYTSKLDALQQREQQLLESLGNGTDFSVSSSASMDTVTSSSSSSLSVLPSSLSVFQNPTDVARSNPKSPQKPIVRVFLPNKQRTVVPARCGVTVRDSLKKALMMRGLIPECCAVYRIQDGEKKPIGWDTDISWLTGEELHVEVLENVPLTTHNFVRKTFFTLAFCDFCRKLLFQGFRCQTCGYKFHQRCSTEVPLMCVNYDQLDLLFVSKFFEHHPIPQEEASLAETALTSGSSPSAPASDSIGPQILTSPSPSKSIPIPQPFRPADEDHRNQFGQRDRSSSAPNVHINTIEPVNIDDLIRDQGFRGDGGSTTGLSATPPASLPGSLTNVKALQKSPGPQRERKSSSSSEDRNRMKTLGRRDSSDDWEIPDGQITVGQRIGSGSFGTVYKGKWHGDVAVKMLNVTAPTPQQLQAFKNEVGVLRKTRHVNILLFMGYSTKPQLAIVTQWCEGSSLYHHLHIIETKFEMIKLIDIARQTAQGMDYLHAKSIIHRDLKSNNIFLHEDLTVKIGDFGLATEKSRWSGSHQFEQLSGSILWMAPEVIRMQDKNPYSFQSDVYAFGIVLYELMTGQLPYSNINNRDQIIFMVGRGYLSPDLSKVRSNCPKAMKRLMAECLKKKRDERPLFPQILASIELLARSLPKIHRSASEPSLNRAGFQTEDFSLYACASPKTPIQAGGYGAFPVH
Protocol: as §3

B-RAF = B-RAF (Homo sapiens (Human), UniProt P15056); experiment: as above; type: biochemical; conditions: read-out: Inhibitory effect against kinase activity, B-RAF (IC50)
Sequence of B-RAF (P15056 whole entry): as the sequence (P15056 whole entry V600E) above, with E600V counted along it
Protocol: as §3

Structure (SMILES): CCN1CCN(CCNc2nccc(-c3c(-c4cccc(O)c4)nc4occn34)n2)S1(=O)=O [2II, 2-Ethyl-5-(2-((4-(6-(3-hydroxylphenyl)imidazo[2,1-b]oxazol-5-yl)pyrimidin-2-yl)amino)ethyl)-1,2,5-thiadiazolidine 1,1-dioxide]
- IC50 (SK-MEL-2): 2600 nM
- IC50 (LOX IMVI): 2530 nM
- IC50 (SK-MEL-5): 6280 nM
- IC50 (C-RAF): 0.75 nM
- IC50 (V600E-B-RAF): 0.67 nM
- IC50 (B-RAF): < 0.04 nM
